The results in this text go back to ChEMBL document CHEMBL1134245, “Two novel and potent 3-[(o-methoxyphenyl)piperazinylethyl]-5-phenylthien” (Bioorg Med Chem Lett, 2001).

Assay [1] addresses Serotonin 1 (5-HT1) receptor (Rattus norvegicus, UniProt P28564+P30940+P19327+P28565). As to the kind of experiment: Ancillary Binding affinity towards rat 5-hydroxytryptamine 1 receptor. Type of assay: protein assay.
The target of assay [2] is T1, Alpha-1A adrenergic receptor (Rattus norvegicus, UniProt P43140).
T1 sequence (P43140 whole entry): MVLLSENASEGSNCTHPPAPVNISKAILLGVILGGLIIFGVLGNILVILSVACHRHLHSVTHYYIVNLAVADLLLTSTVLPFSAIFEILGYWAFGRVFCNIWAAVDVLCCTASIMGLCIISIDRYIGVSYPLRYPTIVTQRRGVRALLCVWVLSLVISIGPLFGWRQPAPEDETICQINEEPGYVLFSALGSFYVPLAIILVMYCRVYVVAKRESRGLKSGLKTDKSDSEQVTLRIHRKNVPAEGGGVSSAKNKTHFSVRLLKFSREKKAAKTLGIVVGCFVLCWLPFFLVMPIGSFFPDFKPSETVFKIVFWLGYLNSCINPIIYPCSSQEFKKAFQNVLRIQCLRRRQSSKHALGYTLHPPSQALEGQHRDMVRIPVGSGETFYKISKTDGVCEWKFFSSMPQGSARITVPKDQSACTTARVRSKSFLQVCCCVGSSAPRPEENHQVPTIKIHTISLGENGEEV
As to the kind of experiment: Binding affinity towards rat Alpha-1A adrenergic receptor.

For assay [3], the target named is T2, Alpha-1D adrenergic receptor (Homo sapiens, UniProt P25100).
T2 sequence (P25100 whole entry): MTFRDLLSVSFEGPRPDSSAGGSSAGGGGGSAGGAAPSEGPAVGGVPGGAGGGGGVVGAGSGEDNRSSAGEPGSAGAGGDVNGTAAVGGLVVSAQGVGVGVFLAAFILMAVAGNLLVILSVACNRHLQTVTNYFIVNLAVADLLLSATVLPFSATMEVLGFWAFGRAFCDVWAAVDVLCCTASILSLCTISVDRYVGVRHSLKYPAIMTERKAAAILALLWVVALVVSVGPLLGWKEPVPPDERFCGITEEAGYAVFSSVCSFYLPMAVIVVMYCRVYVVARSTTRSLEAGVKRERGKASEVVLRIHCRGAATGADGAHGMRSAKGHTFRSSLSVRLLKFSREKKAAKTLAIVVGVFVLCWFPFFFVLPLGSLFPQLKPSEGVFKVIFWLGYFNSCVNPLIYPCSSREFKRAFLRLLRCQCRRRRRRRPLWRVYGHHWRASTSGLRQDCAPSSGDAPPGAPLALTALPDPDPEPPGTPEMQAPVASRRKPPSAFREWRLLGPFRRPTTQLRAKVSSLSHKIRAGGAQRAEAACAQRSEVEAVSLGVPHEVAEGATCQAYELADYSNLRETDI
Put plainly: Binding affinity towards human Alpha-1D adrenergic receptor.

Assay [4] concerns the target T3, Alpha-1B adrenergic receptor (Rattus norvegicus, UniProt P15823).
T3 sequence (P15823 whole entry): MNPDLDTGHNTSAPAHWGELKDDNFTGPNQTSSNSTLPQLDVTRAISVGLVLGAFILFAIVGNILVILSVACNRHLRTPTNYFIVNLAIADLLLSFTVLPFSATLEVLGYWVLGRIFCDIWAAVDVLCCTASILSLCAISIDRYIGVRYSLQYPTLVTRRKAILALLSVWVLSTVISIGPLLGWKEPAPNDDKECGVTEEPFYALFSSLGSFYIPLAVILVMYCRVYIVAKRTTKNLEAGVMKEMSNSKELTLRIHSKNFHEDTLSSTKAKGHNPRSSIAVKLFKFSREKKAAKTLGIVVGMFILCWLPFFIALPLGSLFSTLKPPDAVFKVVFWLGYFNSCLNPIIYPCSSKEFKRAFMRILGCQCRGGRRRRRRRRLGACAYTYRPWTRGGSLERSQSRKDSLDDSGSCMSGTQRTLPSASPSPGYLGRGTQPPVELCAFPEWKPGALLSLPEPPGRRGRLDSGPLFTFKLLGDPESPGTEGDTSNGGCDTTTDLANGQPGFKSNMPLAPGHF
As to the kind of experiment: In vitro functional activity at Alpha-1B adrenergic receptor in rat spleen. Format: tissue-based. To be noted: read-out: pA2 (converted).

The target in assay [5] is T4, Alpha-2C adrenergic receptor (Homo sapiens, UniProt P18825).
T4 sequence (P18825 whole entry): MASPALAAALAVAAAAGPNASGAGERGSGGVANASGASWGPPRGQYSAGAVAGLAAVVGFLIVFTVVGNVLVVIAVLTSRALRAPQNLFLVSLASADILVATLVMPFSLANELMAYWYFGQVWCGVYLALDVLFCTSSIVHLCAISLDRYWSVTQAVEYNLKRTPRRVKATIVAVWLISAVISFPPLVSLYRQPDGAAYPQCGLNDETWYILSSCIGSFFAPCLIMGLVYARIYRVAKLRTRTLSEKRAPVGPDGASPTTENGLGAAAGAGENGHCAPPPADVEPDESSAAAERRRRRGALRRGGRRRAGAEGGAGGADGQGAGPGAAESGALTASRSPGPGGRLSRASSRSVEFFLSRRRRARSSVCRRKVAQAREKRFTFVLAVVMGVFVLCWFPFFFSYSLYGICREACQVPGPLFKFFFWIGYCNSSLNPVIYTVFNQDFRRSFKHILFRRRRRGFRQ
As to the kind of experiment: Ancillary Binding affinity to cloned human Alpha-2C adrenergic receptor.

Assay [6] has as its target T5, Alpha-1A adrenergic receptor (Homo sapiens, UniProt P35348).
T5 sequence (P35348 whole entry): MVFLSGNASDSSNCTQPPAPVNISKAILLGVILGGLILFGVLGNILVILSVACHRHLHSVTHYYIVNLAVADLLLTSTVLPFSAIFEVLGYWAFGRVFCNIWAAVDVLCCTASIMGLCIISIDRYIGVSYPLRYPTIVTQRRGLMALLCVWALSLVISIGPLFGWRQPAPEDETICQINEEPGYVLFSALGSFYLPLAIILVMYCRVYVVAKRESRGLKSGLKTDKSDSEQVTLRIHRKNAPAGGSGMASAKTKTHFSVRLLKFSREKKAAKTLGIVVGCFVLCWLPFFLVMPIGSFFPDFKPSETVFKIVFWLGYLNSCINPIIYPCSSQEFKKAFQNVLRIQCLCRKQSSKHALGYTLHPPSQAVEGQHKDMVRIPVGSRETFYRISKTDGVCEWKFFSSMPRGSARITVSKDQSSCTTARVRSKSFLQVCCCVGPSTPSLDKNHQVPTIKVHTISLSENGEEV
As to the kind of experiment: Binding affinity for human Alpha-1A adrenergic receptor.

In a further assay the target is D(1A) dopamine receptor (Rattus norvegicus, UniProt P18901). Put plainly: Ancillary Binding affinity to rat Dopamine receptor D1.
Chain of D(1A) dopamine receptor (P18901 whole entry): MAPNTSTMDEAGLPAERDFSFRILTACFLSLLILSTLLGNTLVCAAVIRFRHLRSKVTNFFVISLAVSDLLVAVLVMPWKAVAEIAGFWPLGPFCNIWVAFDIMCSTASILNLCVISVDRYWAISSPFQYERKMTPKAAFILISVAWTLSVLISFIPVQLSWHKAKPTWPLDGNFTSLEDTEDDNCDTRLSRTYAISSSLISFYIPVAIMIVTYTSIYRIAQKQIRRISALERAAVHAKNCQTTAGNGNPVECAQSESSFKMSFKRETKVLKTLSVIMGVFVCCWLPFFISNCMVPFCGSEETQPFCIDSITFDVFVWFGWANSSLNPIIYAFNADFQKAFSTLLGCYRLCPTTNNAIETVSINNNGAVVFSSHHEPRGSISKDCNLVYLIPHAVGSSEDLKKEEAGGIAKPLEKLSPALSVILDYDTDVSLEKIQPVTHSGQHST

For orientation: Ki means a dissociation constant, usually derived from enzyme kinetics or from competition with a known ligand. A higher Ki goes with lower affinity. For the compound `COc1ccccc1N1CCN(CCn2c(=O)[nH]c3scc(-c4ccccc4)c3c2=O)CC1` [A-119637], the Ki in assay [1] is 5490 nM; in assay [2] it was 2.43 nM; in assay [3], 0.252 nM; in assay [5], 74.7 nM; in assay [6], 2.63 nM; at D(1A) dopamine receptor, 6090 nM. Besides, the Kb in assay [4] is 2.04 nM.
On to `COc1ccccc1N1CCN(CCn2c(=O)[nH]c3scc(-c4cccc(C)c4)c3c2=O)CC1` [A-123189], for which the Ki in assay [1] was determined as 12300 nM; in assay [2] it was 3.47 nM; in assay [3] it was 0.312 nM; in assay [5] it was 82 nM; in assay [6], 4.17 nM; at D(1A) dopamine receptor, 12300 nM. Further, in assay [4], the Kb was 1.74 nM.
